Measured values reported in patent US6723715B1, “14, 15-cyclopropanosteroids of the 19-norandrostane series, method for producing said compounds and pharmaceutical preparation containing said compounds” (Schering AG, priority 1999, dated 2004).

How the values were obtained:
androgen receptor = biological target: T1, androgen receptor (Homo sapiens, UniProt P10275); assay: binding to the androgen receptor relative to R 1881; details: R 1881=100%
T1 sequence (P10275 1-920): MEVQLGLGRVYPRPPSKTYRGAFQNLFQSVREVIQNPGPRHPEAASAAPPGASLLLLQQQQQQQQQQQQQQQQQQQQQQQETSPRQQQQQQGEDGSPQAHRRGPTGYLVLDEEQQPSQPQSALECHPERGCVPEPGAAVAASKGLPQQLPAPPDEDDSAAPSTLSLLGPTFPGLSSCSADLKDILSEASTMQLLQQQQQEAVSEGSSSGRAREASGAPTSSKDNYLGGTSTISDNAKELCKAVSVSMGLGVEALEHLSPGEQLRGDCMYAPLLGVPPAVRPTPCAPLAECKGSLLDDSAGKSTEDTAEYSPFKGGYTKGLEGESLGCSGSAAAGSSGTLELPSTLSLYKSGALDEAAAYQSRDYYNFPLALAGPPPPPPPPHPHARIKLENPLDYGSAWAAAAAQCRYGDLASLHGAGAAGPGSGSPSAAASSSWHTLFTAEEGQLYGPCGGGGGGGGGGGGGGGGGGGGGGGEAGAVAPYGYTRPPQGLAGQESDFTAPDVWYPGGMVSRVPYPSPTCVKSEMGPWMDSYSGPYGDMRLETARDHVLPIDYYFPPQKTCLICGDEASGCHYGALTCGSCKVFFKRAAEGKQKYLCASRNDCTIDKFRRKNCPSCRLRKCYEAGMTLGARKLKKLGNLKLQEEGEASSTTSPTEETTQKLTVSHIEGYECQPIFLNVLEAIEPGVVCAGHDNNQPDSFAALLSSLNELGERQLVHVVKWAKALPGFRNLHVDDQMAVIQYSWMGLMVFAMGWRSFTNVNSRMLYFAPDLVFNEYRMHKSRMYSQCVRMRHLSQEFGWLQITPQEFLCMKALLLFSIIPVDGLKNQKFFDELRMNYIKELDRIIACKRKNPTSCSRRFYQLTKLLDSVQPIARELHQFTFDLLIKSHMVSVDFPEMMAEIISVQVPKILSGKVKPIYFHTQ

progesterone receptor = biological target: T2, progesterone receptor (Homo sapiens, UniProt P06401); assay: binding to the progesterone receptor relative to progesterone; details: progesterone=100%
T2 sequence (P06401 1-933): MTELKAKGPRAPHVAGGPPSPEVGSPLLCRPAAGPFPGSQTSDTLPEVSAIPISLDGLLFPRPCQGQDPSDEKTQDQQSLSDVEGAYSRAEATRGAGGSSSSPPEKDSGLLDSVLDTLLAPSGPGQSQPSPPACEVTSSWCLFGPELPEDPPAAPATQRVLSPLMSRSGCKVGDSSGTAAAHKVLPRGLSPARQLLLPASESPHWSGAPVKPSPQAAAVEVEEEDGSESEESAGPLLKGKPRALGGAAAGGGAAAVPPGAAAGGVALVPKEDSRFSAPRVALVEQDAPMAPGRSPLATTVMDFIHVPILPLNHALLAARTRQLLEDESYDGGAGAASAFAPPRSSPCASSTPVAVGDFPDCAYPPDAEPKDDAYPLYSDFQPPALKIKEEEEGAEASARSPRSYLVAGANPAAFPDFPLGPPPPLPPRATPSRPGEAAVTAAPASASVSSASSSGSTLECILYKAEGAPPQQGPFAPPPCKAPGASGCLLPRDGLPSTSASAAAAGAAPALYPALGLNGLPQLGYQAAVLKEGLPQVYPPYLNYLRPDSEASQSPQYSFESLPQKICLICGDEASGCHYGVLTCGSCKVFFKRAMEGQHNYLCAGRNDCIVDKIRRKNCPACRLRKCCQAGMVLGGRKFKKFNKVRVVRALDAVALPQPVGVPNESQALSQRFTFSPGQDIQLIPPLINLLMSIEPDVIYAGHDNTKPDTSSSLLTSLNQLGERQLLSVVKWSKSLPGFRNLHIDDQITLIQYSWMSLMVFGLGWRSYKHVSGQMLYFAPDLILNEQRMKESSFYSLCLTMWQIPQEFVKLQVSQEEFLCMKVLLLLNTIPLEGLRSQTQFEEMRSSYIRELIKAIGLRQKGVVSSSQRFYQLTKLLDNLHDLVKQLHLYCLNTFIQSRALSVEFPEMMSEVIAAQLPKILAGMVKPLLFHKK

## C[C@]12CC[C@H]3[C@@H](CCC4=C(Cl)C(=O)CC[C@@H]43)[C@@]13C[C@H]3C[C@@H]2O [4-Chloro-17β-hydroxy-14α,15α-methylene-estr-4-ene-3-one]
Androgen receptor
  binds to the extent of % to the androgen receptor: 98%
Progesterone receptor
  binds to the extent of % to the progesterone receptor: 5.5%

## C[C@]12C=CC3=C4CCC(=O)C=C4CC[C@H]3[C@@]13C[C@H]3C[C@@H]2O [17β-Hydroxy-14α,15α-methylene-estr-4,9,11-triene-3-one]
Androgen receptor
  binds to the extent of % to the androgen receptor: 58%
Progesterone receptor
  binds to the extent of % to the progesterone receptor: 36%
